According to the supplement of paper PMC10307832:

Key:
Experiment in all cases: relative viability (nuclei count vs DMSO), 5 days (fraction); higher = more cells survive
[1] = compound: CC1(C)CNc2cc(NC(=O)c3cccnc3NCc3ccncc3)ccc21 [Motesanib] + CC(=O)c1c(C)c2cnc(Nc3ccc(N4CCNCC4)cn3)nc2n(C2CCCC2)c1=O [Palbociclib] (partner 0.5 µM)
Summary of the method: (§1)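 Values are medians from duplicate plates. Each reflects relative viability, defined as the nuclei count of treated wells over that of vehicle wells. Lung cancer cell lines in 1536-well plates were pin-tool dosed one day after seeding with one drug alone or with a fixed anchor-drug dose plus five library-drug doses (not always all listed) in √10 steps, then fixed, stained and imaged at 4× after 5 days.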

[2] = compound: C[C@@]1(C(=O)Nc2ccc(F)nc2)CCCN1c1nc(Nc2cc(C3CC3)n[nH]2)c2cccn2n1 + Nc1nc2[nH]cc(CCc3ccc(C(=O)N[C@@H](CCC(=O)O)C(=O)O)cc3)c2c(=O)[nH]1 [Pemetrexed] (partner 0.2 µM)
Summary of the method: as §1

[3] = compound: CC1(C)CNc2cc(NC(=O)c3cccnc3NCc3ccncc3)ccc21 [Motesanib] + Cc1nc(NC(=O)N2CCC[C@H]2C(N)=O)sc1-c1ccnc(C(C)(C)C(F)(F)F)c1 [Alpelisib] (partner 2 µM)
Summary of the method: as §1

[4] = compound: C[C@@]1(C(=O)Nc2ccc(F)nc2)CCCN1c1nc(Nc2cc(C3CC3)n[nH]2)c2cccn2n1 + CS(=O)(=O)N1CCN(Cc2cc3nc(-c4cccc5[nH]ncc45)nc(N4CCOCC4)c3s2)CC1 [Pictilisib] (partner 1 µM)
Summary of the method: as §1

Row | Cell Line | relative viability ([1]; first compound 0.01 µM) | relative viability ([1]; first compound 0.3162 µM) | relative viability ([1]; first compound 1 µM) | relative viability ([2]; first compound 0.04 µM) | relative viability ([2]; first compound 0.1265 µM) | relative viability ([2]; first compound 0.4 µM) | relative viability ([2]; first compound 1.265 µM) | relative viability ([1]; first compound 0.03162 µM) | relative viability ([1]; first compound 0.1 µM) | relative viability ([3]; first compound 0.01 µM) | relative viability ([3]; first compound 0.03162 µM) | relative viability ([3]; first compound 0.1 µM) | relative viability ([3]; first compound 0.3162 µM) | relative viability ([3]; first compound 1 µM) | relative viability ([4]; first compound 0.04 µM) | relative viability ([4]; first compound 0.1265 µM) | relative viability ([4]; first compound 0.4 µM) | relative viability ([4]; first compound 1.265 µM)
1 | NCI-H1648 | 0.305 | 0.28 | 0.261 | 0.661 | 0.606 | 0.624 | 0.637 |  |  |  |  |  |  |  |  |  |  | 
2 | SK-MES-1 | 0.322 | 0.331 | 0.351 | 0.948 | 0.93 | 0.838 | 0.796 | 0.319 | 0.316 | 1.04 | 0.948 | 0.961 | 0.927 | 0.995 | 0.335 | 0.268 | 0.286 | 0.306
3 | HCC-366 | 0.354 | 0.452 | 0.435 | 0.21 | 0.245 | 0.212 | 0.163 | 0.36 | 0.367 | 0.445 | 0.422 | 0.449 | 0.424 | 0.321 | 0.105 | 0.104 | 0.101 | 0.12
4 | 201T | 0.34 | 0.371 | 0.373 | 0.324 | 0.285 | 0.294 | 0.304 | 0.343 | 0.358 | 1.08 | 1.05 | 1.01 | 0.857 | 1.06 | 0.638 | 0.622 | 0.554 | 0.614
5 | HCC-827 | 0.569 | 0.546 | 0.439 | 0.264 | 0.284 | 0.244 | 0.277 | 0.437 | 0.459 | 0.99 | 1.01 | 1.03 | 1.03 | 1.03 | 0.889 | 1.07 | 1.1 | 1
6 | NCI-H647 | 0.428 | 0.423 | 0.466 | 0.174 | 0.163 | 0.174 | 0.123 | 0.262 | 0.395 | 1.02 | 1.21 | 1.1 | 1.33 | 1.09 | 0.443 | 0.24 | 0.334 | 0.348
7 | NCI-H2023 | 0.365 | 0.385 | 0.401 | 0.252 | 0.137 | 0.152 | 0.0911 | 0.378 | 0.361 | 0.628 | 0.669 | 0.68 | 0.619 | 0.648 | 0.197 | 0.129 | 0.118 | 0.146
8 | NCI-H520 | 0.209 | 0.234 | 0.225 | 0.661 | 0.529 | 0.581 | 0.615 | 0.215 | 0.235 | 0.864 | 0.899 | 0.879 | 0.871 | 0.768 | 0.317 | 0.298 | 0.284 | 0.361
9 | RERF-LC-KJ | 1.11 | 1.12 | 1.19 | 0.467 | 0.421 | 0.438 | 0.436 | 0.968 | 1.18 | 0.814 | 0.805 | 0.854 | 0.642 | 0.86 | 0.477 | 0.44 | 0.228 | 0.494
10 | A-427 | 0.527 | 0.526 | 0.549 | 0.989 | 0.939 | 0.927 | 0.813 | 0.506 | 0.512 | 1.12 | 1.08 | 1.05 | 1.09 | 1.04 | 0.79 | 0.679 | 0.739 | 0.705
11 | NCI-H441 | 0.237 | 0.2 | 0.23 | 0.246 | 0.261 | 0.243 | 0.267 | 0.214 | 0.268 | 0.699 | 0.998 | 1.03 | 0.636 | 0.847 | 0.455 | 0.337 | 0.36 | 0.375
12 | NCI-H1703 |  |  |  |  |  |  |  |  |  | 0.294 | 0.283 | 0.211 | 0.183 | 0.239 | 0.25 | 0.224 | 0.227 | 0.213
13 | NCI-H1792 |  | 0.675 | 0.667 | 0.641 | 0.333 | 0.303 | 0.27 | 0.583 | 0.653 | 0.702 | 0.63 | 0.78 | 0.757 | 0.685 | 0.257 | 0.266 | 0.201 | 0.318
14 | Calu-6 |  |  |  |  |  |  |  |  |  | 0.984 | 0.931 | 0.928 | 1.02 | 1.03 | 0.965 | 0.833 | 0.695 | 0.425
15 | SK-LU-1 | 0.386 | 0.409 | 0.401 | 1.07 | 0.833 | 0.778 | 0.85 | 0.438 | 0.44 | 1.11 | 1.07 | 1.17 | 0.93 | 1.05 | 0.546 | 0.453 | 0.428 | 0.502
16 | PC-3 [JPC-3] | 0.558 | 0.605 | 0.559 | 1.19 | 1.03 | 1.04 | 0.839 | 0.544 | 0.568 | 1.09 | 1.03 | 1.07 | 1.09 | 1.03 | 0.784 | 0.595 | 0.708 | 0.644
